Results reported in patent US20210094922A1, “Dyes for Analysis of Soluble Protein Aggregates or Misfolded Protein Oligomers” (The Penn State Research Foundation, priority 2018, published 2021).

What was measured:
[1] = molecular target: bovine serum albumin and sodium dodecyl sulfate (Bos taurus, UniProt P02769); assay: Fluorescence background response to BSA and SDS; settings: incubated with BSA or SDS
Protocol: 20 µM of fluorophores were incubated in H2O, glycerol, dioxane, BSA (2 mg/mL), or SDS (0.2%). Intensities were normalized against the value in either 100% glycerol as 1 for CCVJ and 4, or dioxane as 1 for SBD. Parameters for fluorescence measurement: SBD (Ex=450 nm/Em=545 nm), CCVJ (Ex=450 nm/Em=500 nm), 4 (Ex=530 nm/Em=630 nm). Error bars: standard error (n=3).

[2] = molecular target: T1, Htt-97Q-Halo (UniProt P0A3G2+P42858, A155T/A167V/A172T/A224E/C128F/C176G/D78G/E160K/E257K/H272N/K175M/K195N/L47V/L88M/N227D/S58T/T264A/Y273L/Y87F); assay: AggTag imaging of Htt-Halo aggregation in HEK293T cells; type: cell-based, human
T1 construct: using the Huntingtin exon 1 protein (Htt) with expansion of a polyglutamine tract within its N-terminal domain; expressed in transfected cells; host or cells: HEK293T
Protocol: (§1) (a) The dual-probe live cell imaging experiment. Halo-tag fusion proteins were labeled in the presence of both the non-fluorogenic coumarin ligand (1 μM) and 4 (1 µM). The newly synthesized Htt-Halo proteins were equally labeled with either the coumarin ligand or 4. The coumarin ligand is fluorescent both before and after aggregation of Htt-Halo. By contrast, signal of 4 exclusively arises from Htt-Halo aggregates. (b) Dual probes labeling confirms expression of proteins. The Htt Q0-Halo and Htt Q97-Halo proteins were transiently transfected and expressed in HEK293T cells for 24 h, in the presence of 1 μM coumarin Halo-Tag ligand and 1 μM of 4. In cells expressing Htt Q97-Halo proteins, punctate structures in the coumarin channel coincided with the turn-on fluorescence of 4. […] (c) The Htt Q97 protein, without a Halo-Tag, was transiently transfected and expressed in HEK293T cells for 24 h, in the presence of 1 μM of 4. No turn-on fluorescence of 4 was found. Red: fluorescence from the SOD1(V31A)-Halo-4 conjugate. Blue: coumarin Halo-Tag ligand in (a) or nucleus stained by Hoechst 33342 in (b). Scale bar: 10 μm. (d) Fluorescent intensity of cell lysates from samples as represented in FIG. 4d. Error bars: standard error (n=3).
(§2) Confocal microscope imaging. The HEK293T cells were seeded at 25% confluency 24 h prior to transfection in poly-D-lysine coated 35 mm glass bottom dishes (MatTek Corporation). Cells were grown in DMEM media supplemented with 10% FBS and Penicillin-Streptomycin antibiotics until they reached 50-60% confluency. Transfection was carried out using X-tremeGene™ 9 DNA transfection reagent (Roche) according to the manufacturer's instructions. Proteins were expressed for 24 h prior to analyses. To label proteins with Halo-Tag fusion, protein expression was carried out in the presence of 1 μM 4 or 1 μM TMR Halo-Tag ligand to form covalent conjugate with the Halo-Tag domain. For a dual-probe labeling scheme, 1 μM 4 and 1 μM coumarin Halo-Tag ligand to simultaneously form covalent conjugate with the Halo-Tag domain.
(§3) To wash off unbound Halo ligands, the cells were washed extensively by replacing media with fresh DMEM and incubating for 30 min at 37° C. For confocal fluorescence imaging with either 4-labeled Halo fusion, TMR-labeled Halo fusion, EGFP fusion, or mCherry fusion proteins, DMEM media was replaced with FluoroBrite™ DMEM media (ThermoFisher) supplemented with 10% FBS, and Hoechst 33342 (0.1 μg/mL). For confocal fluorescence imaging with either dual-probe labeled Halo fusion with 4 and coumarin ligand, DMEM media was replaced with FluoroBrite™ DMEM media (ThermoFisher) supplemented with 10% FBS. The samples were incubated for 30 min prior to imaging. Media was replaced with fresh FluoroBrite™ DMEM media (ThermoFisher) supplemented with 10% FBS prior to imaging. Confocal images were obtained using Olympus FluoView™ FV1000 confocal microscope. The EGFP fluorescence was visualized using blue argon (488 nm) laser. Nuclear staining and coumarin fluorescence was visualized using violet laser (405 nm). Fluorescence of TMR and 4 were visualized using green HeNe laser (543 nm).

[3] = molecular target: T2, (UniProt P0A3G2+P42858, A155T/A167V/A172T/A224E/C128F/C176G/D78G/DEL18-38/E160K/E257K/H272N/K175M/K195N/L47V/L88M/N227D/S58T/T264A/Y273L/Y87F); assay: as above; type: cell-based, human; settings: non-aggregating control
T2 construct: using the Huntingtin exon 1 protein (Htt) with expansion of a polyglutamine tract within its N-terminal domain; expressed in transfected cells; host or cells: HEK293T
Protocol: as §1, §2, §3

[4] = test system: Htt-97Q-Halo; assay: as above; type: cell-based, human; settings: control
Protocol: as §1, §2, §3

[5] = molecular target: T3, Htt-97Q-Halo (Homo sapiens, UniProt P42858); assay: as above; type: cell-based; settings: non-specific binding control
T3 construct: using the Huntingtin exon 1 protein (Htt) with expansion of a polyglutamine tract within its N-terminal domain; expressed in transfected cells; host or cells: HEK293T
Protocol: as §1, §2, §3

T1 sequence (P42858+P0A3G2 fused with the stated changes): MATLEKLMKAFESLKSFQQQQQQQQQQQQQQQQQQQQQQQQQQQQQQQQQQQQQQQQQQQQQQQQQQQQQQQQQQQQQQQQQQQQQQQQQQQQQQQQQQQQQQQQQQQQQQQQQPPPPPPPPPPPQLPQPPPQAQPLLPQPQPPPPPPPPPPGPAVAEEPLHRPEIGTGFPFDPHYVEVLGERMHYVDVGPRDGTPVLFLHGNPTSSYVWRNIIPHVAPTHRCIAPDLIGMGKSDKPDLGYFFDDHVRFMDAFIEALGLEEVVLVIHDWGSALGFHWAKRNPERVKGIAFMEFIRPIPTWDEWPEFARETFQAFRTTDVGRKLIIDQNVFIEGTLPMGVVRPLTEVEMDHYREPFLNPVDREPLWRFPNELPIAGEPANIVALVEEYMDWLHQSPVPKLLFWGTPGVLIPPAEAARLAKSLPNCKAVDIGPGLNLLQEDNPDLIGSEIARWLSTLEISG
T2 sequence (P42858+P0A3G2 fused with the stated changes): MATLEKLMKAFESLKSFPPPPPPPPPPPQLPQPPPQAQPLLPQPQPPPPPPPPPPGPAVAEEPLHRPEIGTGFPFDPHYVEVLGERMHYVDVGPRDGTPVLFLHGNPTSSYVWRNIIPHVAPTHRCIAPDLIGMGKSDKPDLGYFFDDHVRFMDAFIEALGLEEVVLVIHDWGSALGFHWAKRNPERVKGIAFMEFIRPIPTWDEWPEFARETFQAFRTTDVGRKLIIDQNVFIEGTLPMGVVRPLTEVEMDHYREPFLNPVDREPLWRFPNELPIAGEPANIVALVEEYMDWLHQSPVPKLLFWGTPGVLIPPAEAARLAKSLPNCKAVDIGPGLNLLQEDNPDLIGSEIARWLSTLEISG
bovine serum albumin and sodium dodecyl sulfate, sequence (P02769 25-607): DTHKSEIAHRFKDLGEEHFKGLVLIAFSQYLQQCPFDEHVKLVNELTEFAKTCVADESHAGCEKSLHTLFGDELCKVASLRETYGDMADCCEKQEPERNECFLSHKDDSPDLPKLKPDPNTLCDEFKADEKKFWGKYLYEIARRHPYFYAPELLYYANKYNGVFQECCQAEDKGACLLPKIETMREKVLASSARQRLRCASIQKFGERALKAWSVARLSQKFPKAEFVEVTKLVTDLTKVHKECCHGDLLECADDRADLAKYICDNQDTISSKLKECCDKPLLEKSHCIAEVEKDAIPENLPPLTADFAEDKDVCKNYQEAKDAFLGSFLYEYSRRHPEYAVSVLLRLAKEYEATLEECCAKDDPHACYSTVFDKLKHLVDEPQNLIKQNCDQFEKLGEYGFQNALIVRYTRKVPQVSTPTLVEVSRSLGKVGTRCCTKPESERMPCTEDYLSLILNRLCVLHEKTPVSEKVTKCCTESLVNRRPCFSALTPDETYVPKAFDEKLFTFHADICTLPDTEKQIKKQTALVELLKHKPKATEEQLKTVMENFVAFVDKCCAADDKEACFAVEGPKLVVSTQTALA
T3 sequence (P42858 with tags, fused parts or gaps): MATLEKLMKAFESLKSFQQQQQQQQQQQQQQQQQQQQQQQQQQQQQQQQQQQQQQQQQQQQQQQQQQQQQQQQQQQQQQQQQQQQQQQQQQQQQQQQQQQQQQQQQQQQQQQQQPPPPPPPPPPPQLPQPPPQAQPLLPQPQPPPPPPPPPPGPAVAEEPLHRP

`CN(C)c1ccc(/C=C2N=C(/C=C/c3ccc(N(CCO)CCO)cc3)N(CC(=O)N[C@H]3CC[C@H](C(=O)NCCOCCOCCCCCCCl)CC3)C\2=O)cc1` [Compound 4, (1r,4r)-4-(2-((Z)-2-((E)-4-(bis(2-hydroxyethyl)amino)styryl)-4-(4-(dimethylamino)benzylidene)-5-oxo-4,5-dihydro-1H-imidazol-1-yl)acetamido)-N-(2-(2-((6-chlorohexyl)oxy)ethoxy)ethyl)cyclohexanecarboxamide] was tested, and the “fluorescent background signal versus SBD and CCVJ” value [1] was “substantially lower fluorescent background signal”, the “turn-on fluorescence in cells expressing Htt-97Q-Halo” value [2] was “observed as puncta without any background diffuse fluorescence” and the “origin of Htt-97Q-Halo fluorescence after fractionation of lysate” value ([2]; cell lysate) was “primarily originated from the insoluble fraction”. For the same compound, the “fluorescence in cells expressing Htt-0Q-Halo” value [3] was “dark background”, the “fluorescence in cells co-expressing Htt-Q97-GFP and Halo-Tag or just expressing Htt-Q97” value [4] was “showed no fluorescence of 4” and the “fluorescence in cells expressing Htt-97Q without Halo-Tag” value [5] was “no fluorescent signal”.
